In test [1] the test system is Cryptococcus neoformans H99. Nature of the test: antifungal susceptibility testing (MIC, MFC), extended spectrum. Conditions: Cryptococcus neoformans, H99, read-out: MICs. In kind it is cell-based, C. neoformans var. neoformans. An excerpt:
(§1) Antifungal susceptibility testing for compounds set forth in Examples 1-20 is discussed hereinbelow. The fungi that were employed included two reference strains, C. neoformans var. neoformans H99 and C. albicans A39 and the following clinical isolates: (1) two strains of fluconazole-resistant C. neoformans var. neoformans (135.95 and 114.96); (2) two strains of C. neoformans var. gattii (119.95 and 114.95); (3) two strains of fluconazole-resistant C. albicans (102.96 and 103.96); and (4) one strain each of Torulopsis glabrata (142.91), Candida parapsilosis (111.96), Candida krusei (132.91), C. tropicalis (110.96), Candida lusitaniae (111.92), Fusarium solani (152.89), Aspergillus fumigatus (168.95), and Aspergillus flavus (112.96). Antifungal susceptibility testing was performed using an RPMI-1640 medium (Sigma Chemical Co., St. Louis, Mo.) with glutamine, without sodium bicarbonate, and buffered at pH 7.0 with 0.165 M morpholine-propanesulfonic acid (MOPS).
(§2) In vitro susceptibility testing in the form of Minimum Inhibitory Concentration (MIC) experiments were performed using the broth macrodilution method according to the recommendations of the National Committee for Clinical Laboratory Standards (see 1995 manual). […] Briefly, this procedure specifies an inoculum grown at 35° C. and adjusted to a concentration of 0.5-2.5×10^3 CFU/ml with an incubation of the test performed at 35° C. and reading at 48 hours for all yeasts except for C. neoformans which is interpreted at 72 hr.
(§3) Minimum Fungicidal Concentration (MFC) experiments were adapted from a method by McGinnis (McGinnis, M. R., (1980) "Susceptibility testing and bioassay procedure", p. 431, Academic Press, Inc., New York). […] The lowest drug concentration that yielded three or fewer yeasts colonies was recorded as the MFC. […]
(§4) Minimum Fungicidal Concentration (MFC) experiments were adapted from a method by McGinnis (McGinnis, M. R., (1980) "Susceptibility testing and bioassay procedure", p.431, Academic Press, Inc., New York). […] The lowest drug concentration that yielded 3 or fewer yeasts colonies was recorded as the MFC. […]

In another test the test system is Candida albicans A39. The test is described as above. Conditions: Candida albicans, A39, read-out: MICs. In kind it is cell-based.
Excerpt: as §1
(§5) In vitro susceptibility testing in the form of Minimum Inhibitory Concentration (MIC) experiments were performed using the broth macrodilution method according to the recommendations of the National Committee for Clinical Laboratory Standards (see 1995 manual). The only difference compared to the standardized procedure was the choice of drug dilutions ranging from 100 to 0.09 μg/ml. Briefly, this procedure specifies an inoculum grown at 35° C. and adjusted to a concentration of 0.5-2.5×10^3 CFU/ml with an incubation of the test performed at 35° C. and reading at 48 hours for all yeasts except for C. neoformans which is interpreted at 72 hr.
(§6) Minimum Fungicidal Concentration (MFC) experiments were adapted from a method by McGinnis (McGinnis, M. R., (1980) "Susceptibility testing and bioassay procedure", p. 431, Academic Press, Inc., New York). Briefly, 10 μl aliquots from tubes with growth inhibition were plated onto Sabouraud agar plates. The lowest drug concentration that yielded three or fewer yeasts colonies was recorded as the MFC.
(§7) Antifungal susceptibility testing for compounds set forth in Examples 21-28 is discussed hereinbelow. […]
as §4

The test system of the next test is Cryptococcus neoformans. Nature of the test: in vitro antifungal susceptibility testing (MIC, MFC; broth macrodilution), Tables 1-7. Format: cell-based. Conditions: for MIC: read-out: MIC80 (Minimum inhibitory concentration 80%); for MFC: read-out: MFC (Minimum fungicidal concentration).
Excerpt: as §1, with “The” for “Antifungal susceptibility testing for compounds set forth in Examples 1-20 is discussed hereinbelow. The”
as §5
(§8) Minimum Fungicidal Concentration (MFC) experiments were adapted from a method by McGinnis (McGinnis, M. R., (1980) "Susceptibility testing and bioassay procedure", p. 431, Academic Press, Inc., New York). Briefly, 10 μl aliquots from tubes with growth inhibition were plated onto Sabouraud agar plates.
(§9) The fungi that were employed included two quality control reference strains, C. neoformans var. neoformansH99 and C. albicans A39 and the following clinical isolates: (1) four strains of C. neoformans var. neoformans (167.95; 135.95; 114.96; and 133.95) of which three were fluconazole-resistant>64 μg/ml (135.95; 114.96; and 133.95); (2) two strains of C. neoformans var. gattii (119.95 and 114.95); (3) two strains of fluconazole-resistant>64 μg/ml C. albicans (102.96 and 103.96); and (4) one strain each of C. glabrata (142.91), Candida parapsilosis (111.96), Candida krusei (132.91), C. tropicalis (110.96), Candida lusitaniae (111.92), Fusarium solani (152.89), Aspergillus fumigatus (168.95), Rhizopus arrhizus (117.89), Paecilomyces lilacinus (137.90), and Aspergillus flavus (112.96). Antifungal susceptibility testing was performed using an RPMI-1640 medium (Sigma Chemical Co., St. Louis, Mo.) with glutamine, without sodium bicarbonate, and buffered at pH 7.0 with 0.165 M morpholinepropanesulfonic acid (MOPS).
(§10) Minimum Fungicidal Concentration (MFC) experiments were adapted from a method by McGinnis (McGinnis, M. R., (1980) "Susceptibility testing and bioassay procedure", p.431, Academic Press, Inc., New York). Briefly, 10 μl aliquots from tubes with growth inhibition were plated onto Sabouraud agar plates.

The test system of a further test is Candida albicans. The description is as above. In kind it is cell-based. To be noted: for MIC: read-out: MIC80 (Minimum inhibitory concentration 80%); for MFC: read-out: MFC (Minimum fungicidal concentration).
Excerpt: as §1, with “The” for “Antifungal susceptibility testing for compounds set forth in Examples 1-20 is discussed hereinbelow. The”
as §5, §8, §9, §10

The next test deals with C. albicans 103.96. Nature of the test: antifungal susceptibility testing (MIC, MFC), extended spectrum. In kind it is cell-based, Candida albicans. To be noted: Candida albicans, 103.96, read-out: fluconazole-resistant.
Excerpt: as §1, §5, §6
as §9, with “Antifungal susceptibility testing for compounds set forth in Examples 21-28 is discussed hereinbelow. The” for “The”
(§11) Minimum Fungicidal Concentration (MFC) experiments were adapted from a method by McGinnis (McGinnis, M. R., (1980) "Susceptibility testing and bioassay procedure", p.431, Academic Press, Inc., New York). Briefly, 10 μl aliquots from tubes with growth inhibition were plated onto Sabouraud agar plates. The lowest drug concentration that yielded 3 or fewer yeasts colonies was recorded as the MFC. Several drugs were also rescreened with a subculture of 100 μl aliquots from tubes with no growth and there was no change in MFC.

The next test has as its system C. albicans 102.96. The test is described as above. In kind it is cell-based, Candida albicans. Conditions: Candida albicans, 102.96, read-out: fluconazole-resistant.
Excerpt: as §1, §5, §6
as §9, with “Antifungal susceptibility testing for compounds set forth in Examples 21-28 is discussed hereinbelow. The” for “The”
as §11

The subject of a further test is C. neoformans 114.96. The description is as above. In kind it is cell-based, C. neoformans var. neoformans. To be noted: Cryptococcus neoformans, read-out: fluconazole-resistant.
Excerpt: as §1, §2, §3, §4

The subject of a further test is C. neoformans 133.95. The description is as above. Conditions: Cryptococcus neoformans, read-out: fluconazole-resistant. In kind it is cell-based, C. neoformans var. neoformans. As to the method:
as §7, §2, §4

The test system of another test is C. neoformans 135.95. Described as above. Format: cell-based, C. neoformans var. neoformans. Conditions: Cryptococcus neoformans, read-out: fluconazole-resistant. Here is the method:
as §7, §2, §4

The mark [2] stands for this setting: Tables 2-7, three or fewer colonies.

Values after ≈ are worked out from the molar mass of the structure shown. Read-outs that look alike come from different tables or passages of the source. Some results are limits rather than exact numbers.

As to `C[C@@H]1[C@H](O)[C@@H](C)/C=C/C=C/C=C/C=C/C=C/C=C/C=C/[C@H](O[C@@H]2O[C@H](C)[C@@H](O)[C@H](N)[C@@H]2O)C[C@@H]2O[C@](O)(C[C@@H](O)C[C@@H](O)[C@H](O)CC[C@@H](O)C[C@@H](O)CC(=O)O[C@H]1C)C[C@H](O)[C@H]2C(=O)O` [Amphotericin, reference compound], the MIC in test [1] came to 1 µg/mL (≈ 1.08 µM); in the test on Candida albicans A39 it was 1 µg/mL (≈ 1.08 µM); in the test on Cryptococcus neoformans (35° C., 72 hr), 1 µg/mL (≈ 1.08 µM); with Candida albicans (35° C., reading at 48 hours), 1 µg/mL (≈ 1.08 µM).

`c1cc(-c2nc3ccc(C4=NCCN4)cc3[nH]2)ccc1C1=NCCN1` [Compound 62]: the MIC with Cryptococcus neoformans (35° C., 72 hr) was found to be 50 µg/mL (≈ 151 µM); in the test on Candida albicans (35° C., reading at 48 hours), 50 µg/mL (≈ 151 µM). Also, the MFC in the test with Candida albicans (three or fewer colonies) was over 100 µg/mL.

For the compound `c1cc(-c2nc3ccc(C4=NCCCN4)cc3[nH]2)ccc1C1=NCCCN1` [Compound 63], the MIC came out at 25 µg/mL (≈ 69.7 µM) in the test with Cryptococcus neoformans (35° C., 72 hr) and 50 µg/mL (≈ 139 µM) in the test on Candida albicans (35° C., reading at 48 hours). Moreover, the MFC in the test with Cryptococcus neoformans (setting [2]) is 50 µg/mL (≈ 139 µM); with Candida albicans (three or fewer colonies), 100 µg/mL (≈ 279 µM).

With `N=C(N)c1ccc(OCCCOc2ccc(-c3nc4ccc(C(=N)N)cc4[nH]3)cc2)cc1` [Compound 64], the MIC in the test on Cryptococcus neoformans (35° C., 72 hr) came out at 0.19 µg/mL (≈ 0.443 µM); in the test on Candida albicans (35° C., reading at 48 hours), 0.39 µg/mL (≈ 0.91 µM). The MFC with Cryptococcus neoformans (setting [2]) and with Candida albicans (three or fewer colonies) was 0.78 µg/mL (≈ 1.82 µM) each time.

Regarding `N=C(N)c1ccc(OCCCCOc2ccc(-c3nc4ccc(C(=N)N)cc4[nH]3)cc2)cc1` [Compound 65], the MIC in the test on Cryptococcus neoformans (35° C., 72 hr) was at most 0.09 µg/mL; with Candida albicans (35° C., reading at 48 hours), 0.39 µg/mL (≈ 0.881 µM). Also, the MFC in the test on Cryptococcus neoformans (setting [2]) was found to be 1.56 µg/mL (≈ 3.53 µM); with Candida albicans (three or fewer colonies) it was 3.12 µg/mL (≈ 7.05 µM).

In the case of `N=C(N)c1ccc(OCCCCCOc2ccc(-c3nc4ccc(C(=N)N)cc4[nH]3)cc2)cc1` [Compound 66], the MIC was found to be 0.39 µg/mL (≈ 0.854 µM) in the test on Cryptococcus neoformans (35° C., 72 hr) and 0.78 µg/mL (≈ 1.71 µM) in the test on Candida albicans (35° C., reading at 48 hours). Moreover, the MFC came out at 6.25 µg/mL (≈ 13.7 µM) in the test on Cryptococcus neoformans (setting [2]) and 1.56 µg/mL (≈ 3.42 µM) with Candida albicans (three or fewer colonies).

As for `N=C(N)c1ccc(Oc2ccc(-c3nc4ccc(C(=N)N)cc4[nH]3)cc2)cc1` [Compound 67], the MIC in the test on Cryptococcus neoformans (35° C., 72 hr) amounted to 0.78 µg/mL (≈ 2.11 µM); with Candida albicans (35° C., reading at 48 hours), 0.78 µg/mL (≈ 2.11 µM). Moreover, the MFC in the test with Cryptococcus neoformans (setting [2]) turned out to be 6.25 µg/mL (≈ 16.9 µM); in the test on Candida albicans (three or fewer colonies), 0.78 µg/mL (≈ 2.11 µM).

For `OC(Cn1cncn1)(Cn1cncn1)c1ccc(F)cc1F` [Fluconazole, reference compound], the MIC in the test on C. albicans 103.96 was over 64 µg/mL; in the test on C. albicans 102.96, over 64 µg/mL; in the test with C. neoformans 114.96, over 64 µg/mL; in the test on C. neoformans 133.95, over 64 µg/mL; in the test with C. neoformans 135.95, over 64 µg/mL; in the test with Candida albicans A39, 0.25 µg/mL (≈ 0.816 µM). The MIC in the test with Cryptococcus neoformans (72 h) was 2 µg/mL (≈ 6.53 µM); in the test with Candida albicans (48 h) it was 0.25 µg/mL (≈ 0.816 µM). The “MIC80 (Minimum inhibitory concentration 80%)” value against Cryptococcus neoformans (35° C., 72 hr) came out at 2.0 µg/mL (≈ 6.53 µM).

`N=C(N)c1ccc(OCCCCCOc2ccc(C(=N)N)cc2)cc1` [Pentamidine, reference compound]: the MIC in the test with Cryptococcus neoformans (72 h) is 3.12 µg/mL (≈ 9.16 µM); in the test on Candida albicans (48 h), 0.78 µg/mL (≈ 2.29 µM). For the same compound, the “MFC (Minimum fungicidal concentration)” value in the test with Cryptococcus neoformans (setting [2]) was found to be 6.25 µg/mL (≈ 18.4 µM). Also, the MFC with Cryptococcus neoformans was 6.25 µg/mL (≈ 18.4 µM); in the test with Candida albicans it was 1.56 µg/mL (≈ 4.58 µM).

(Values after patent US6326395A, “Antifungal activity of dicationic molecules” (priority 1999, dated 2001).)
